Tests used:
[1] = target: T1, protoporphyrinogen oxidase extracted from the sensitive cell line (Nicotiana tabacum, UniProt O24163, A174P/A191P/T382S); assay: Protoporphyrinogen oxidase activity of crude enzyme preparation; assay type: biochemical
T1 construct: from tissue; host or cells: tobacco callus, herbicide-sensitive cell line; crude particulate fraction
Description: (§1) Using the same procedures described in Nicolaus, B. et al. (1993) in “Target Assay for Modern Herbicide and Related Phytotoxic Compound” Lewis Publishers, pp. 35-41, five volume of extraction buffer (50 mM Tris-HCl (pH 7.5), 0.5 M sucrose, 0.2% BSA, 1 mM EDTA) was added to callus which was cultured in MS solid medium for one month, and homogenized. After filtration with gauze, filtrate was centrifuged with 10,000×g at 4° C. for 5 minutes. Thus obtained precipitate was suspended with 25 ml of ethanol buffer, centrifuged with 150×g at 4° C. for 2 minutes. Thus obtained supernatant was centrifuged with 4,000×g at 4° C. for 15 minutes, and the precipitate was dissolved with 2 ml of 20% glycerol. The protein amount in the obtained crude enzyme preparation was measured with the protein measuring kit (manufactured by Bio-Rad Co., Ltd.).
(§2) The powder of sodium amalgam was prpared as follows. Into a round flask of 500 ml volume, 13 g of mercury and 0.5 g of thin-layer metal sodium were added, and equilibrated with nitrogen gas for 5 minutes, and it was shaked for 5 minutesthen. […] of protoporphyrin IX was dissolved into 10 mM KOH containing 15 ml of 20% ethanol, incubated at 4° C. To 4 ml of the protoporphyrin IX solution, equal amount of reaction mixture (0.1 M MES, 50 mM ascorbic acid) was added, and 16 mg of sodium amalgam freshly prepared was added, and shaken vigorously under nitrogen gas in a dark. The reaction mixture was filtered with a three-layer glass filter in a dark, and diluted 2.5 times with 0.1 M MES (pH4.5), and divided into 1 ml each in a light-shielded test tube and stored at −80° C.
(§3) 3 ml of reaction buffer (100 mM Tris-HCl (pH 7.6), 1 mM EDTA, 5 mM DTT, 0.03% Tween 80) were added to a cell of a fluorescence spectrophotometer, then, the crude enzyme prparation was added at the final concentration of 0.1 mg protein/ml, and it was heated gradually to room temperature. After heating, protoporphyrinogen IX was added at the final concentration of 2 μM, and the gaseous phase was replaced with nitrogen gas, and a reaction was started. Fluorescence was monitored with a spectrophotometer for 30 minutes starting 10 minutes after the start of the reaction, and enzyme activity was measured (Ex:405 nm,Em:631.5 nm).
(§4) Activity of protoporphyrinogen oxidase in crude enzyme preparation which was extracted from a sensitive tobacco and ETR-245 and the extent of inhibition by compound A were compared (Table 4). As a result, activity of the crude enzyme preparation derived from the sensitive strain was 2.39 units, and the activity of the crude enzyme liquid derived from ETR-245 strain was 2.85 units, and there was no large difference between the activities. […] Incidentally, since the reaction mixture became turbidat the concentration of more than 5,000 nM, it was impossible to measure the fluoroescence. From the above results, the resistant mechanism in ETR-245 to the photobleaching herbicide could be thought that the some mutations in the structure of the enzyme occurred, and was not over production of protoporphyrinogen oxidase which was a target enzyme of photobleaching herbicide.

[2] = target: T2, protoporphyrinogen oxidase extracted from ETR-245 (Nicotiana tabacum, UniProt O24163, A231V); assay: as above; assay type: biochemical
T2 construct: from tissue; host or cells: tobacco callus, herbicide-tolerant cell line ETR-245; crude particulate fraction
Description: as §1, §2, §3, §4

[3] = system: transformed tobacco plant, Tobacco resistant type (pBI-NtPX-RC); assay: Leaf disk method, bleaching; assay type: cell-based, N. Tabacum var. SR1
Description: The A. tumefacience having the binary vector which had been stored at −80° C. was cultured with shaking at 27° C. for 24 hours in 523 liquid medium (1% sucrose, 0.8% Bacto-tryptone, 0.4% Bacto-yeast extract, 0.2% K2HPO4, 0.03% MgSO4.7H2O) containing kanamycin. A disk (9 mm diameter) of a tobacco (N. Tabacum var. SR1) leaf which had been surface sterilized was immersed for one minute into the culture of the A. tumefacience, and then the culture liquid attached thereon was removed with a sterilized paper towel. The leaf disk was transferred into MS agar medium containing 0.6% agar in which 2 ppm NAA and 0.2 ppm BA were added, with the reverse side of leaf being made upside, and incubated at 25° C. for 48 hours. The leaf disk was transferred into MS liquid medium containing 500 ppm carbenicillin, 200 ppm claforan, 2 ppm NAA and 0.2 ppm BA and cultured with shaking at 27° C. for 48-72 hours to remove A. tumefacience. The leaf disk was transferred into MS liquid medium containing 0.6% agar, 100 ppm of carbenycillin, 200 ppm of claforan and 150 ppm of kanamycin, 2 ppm NAA and 0.2 ppm BA and incubated at 27° C. for 2-3 weeks and formation of shoot was induced. The shoot was transferred into medium for root development (½ MS, 0.02 ppm IBA, 1.5% sucrose, 0.2% gellan gum) and development of root was introduced. The young plant thus obtained was transferred into culture soil, and was grown in a green house.
(§5) From the transformed plant with which the confirmation of introduction of gene was finished, and non-transformed plant used as a control, a leaf almost the same position of the leaf was picked and 9 mm diameter leaf disks were prepared, and floated on a dish in which 0, 125, 250, 1,250, 2,500, 5,000, 12,500 nM of compound A aqueous solution were contained. After incubation at 27° C. for one week under continuous strong light, the bleaching of the leaf disks was observed, and the permissive concentration to compound A was calculated. As a result (Table 7), in case that the tolerant type of protoporphirinogen oxidase cDNA from tobacco was introduced by pBI-NtPX-RC, more than 100 times of tolerance was observed comparing to the control non-transformed plant. However, in case that rsistant type cDNA from Arabidopsis thaliana was introduced by pBI-AtPX-RC, 4 times of resistance was observed comparing to the control, and in case that the wild type cDNA was introduced, high resistance was not observed in each case.

[4] = system: non-transformed tobacco plant; assay: Leaf disk method, bleaching; assay type: cell-based, N. Tabacum var. SR1
Description: as §5

T2 sequence (O24163 51-548 A231V): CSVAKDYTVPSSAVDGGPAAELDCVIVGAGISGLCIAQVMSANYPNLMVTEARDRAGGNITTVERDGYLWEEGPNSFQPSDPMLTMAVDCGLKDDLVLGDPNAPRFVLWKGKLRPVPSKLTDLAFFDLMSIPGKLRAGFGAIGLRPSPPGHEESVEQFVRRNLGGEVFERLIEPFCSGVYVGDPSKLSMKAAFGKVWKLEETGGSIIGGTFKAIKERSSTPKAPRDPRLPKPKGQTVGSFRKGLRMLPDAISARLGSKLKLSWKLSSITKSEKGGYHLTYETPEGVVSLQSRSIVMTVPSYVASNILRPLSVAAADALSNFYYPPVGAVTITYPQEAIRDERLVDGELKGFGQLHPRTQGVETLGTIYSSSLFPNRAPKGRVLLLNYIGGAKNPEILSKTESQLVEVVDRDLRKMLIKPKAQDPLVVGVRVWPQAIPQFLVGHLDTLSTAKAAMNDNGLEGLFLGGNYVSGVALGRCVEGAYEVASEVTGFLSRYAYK
T1 sequence (O24163 51-548 A174P/A191P/T382S): as the sequence (O24163 51-548 A231V) above, with A124P, A141P, V181A, T332S counted along it

Structure (SMILES): CCOC(=O)COc1cc(-c2nn(C)c(OC(F)F)c2Cl)c(F)cc1Cl [Compound A, ethyl 2-chloro-5-(4-chloro-5-difluoromethoxy-1-methyl-1H-pyrazol-3-yl)-4-fluorophenoxyacetate]
- IC50 [1]: 48 nM
- Enzyme activity(unit) ([1]; Sensitive, 10 nM, 1 unit = 1 nM protoporphyrin IX/min/mg protein): 4.32 unit
- Enzyme activity(unit) ([1]; Sensitive, 20 nM): 3.62 unit
- Enzyme activity(unit) ([1]; Sensitive, 40 nM): 1.84 unit
- Enzyme activity(unit) ([1]; Sensitive, 100 nM): 0.00 unit
- Enzyme activity(unit) ([1]; Sensitive, 500 nM): 0.00 unit
- Enzyme activity(unit) ([1]; Sensitive, 1,000 nM): 0.00 unit
- Enzyme activity(unit) ([1]; Sensitive, 2,400 nM): 0.00 unit
- Enzyme activity(unit) ([1]; Sensitive, 5,000 nM): 0.00 unit
- Enzyme activity(unit) ([2]; ETR-245, 10 nM, 1 unit = 1 nM protoporphyrin IX/min/mg protein): 3.59 unit
- Enzyme activity(unit) ([2]; ETR-245, 40 nM): 4.41 unit
- Enzyme activity(unit) ([2]; ETR-245, 100 nM): 2.21 unit
- Enzyme activity(unit) ([2]; ETR-245, 500 nM): 3.49 unit
- Enzyme activity(unit) ([2]; ETR-245, 1,000 nM): 2.85 unit
- Enzyme activity(unit) ([2]; ETR-245, 2,400 nM): 2.48 unit
- Enzyme activity(unit) ([2]; ETR-245, 5,000 nM): 1.56 unit
- IC50 ([2]; IC50 value (nM), crude enzyme from ETR-245): ≥ 5000 nM
- resistance at enzyme level (ETR-245 vs sensitive) ([2]; ratio of IC50 values): more than 100 times
- Permission conc. to compound A [3]: >12,500 nM
- Resistance ([4]; Introduced gene: None (reference)): 1 X
- Permission conc. to compound A ([4]; Introduced gene: None, one week, continuous strong light): 125 nM

Source: patent US6905852B1, “Herbicide-resistant protoporphyrinogen oxidase isolated from Nicotiana tabacum” (Nihon Nohyaku Co., Ltd., priority 1997, dated 2005)
